# Laboratory results as given in PubChem BioAssay (NCI).
#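 Growth conditions: 96-well plates. Treatment: test compound, 48 hours, 5 concentrations. Analysis: linear interpolation between bracketing concentrations; unreached endpoints set to highest concentration. The concentration for 50% growth inhibition is given as GI50. Definition used: TGI = concentration required for complete inhibition of growth.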
# Key:
# Test in all cases: growth of human tumour cells (NCI), 48 h
# HCT-15 colon = system: HCT-15 colon
# IGROV1 ovarian = system: IGROV1 ovarian
# SF-268 CNS = system: SF-268 CNS
# NCI/ADR-RES ovarian = system: NCI/ADR-RES ovarian
# RXF 393 renal = system: RXF 393 renal
# SK-MEL-2 melanoma = system: SK-MEL-2 melanoma
# NCI-H23 lung = system: NCI-H23 lung
# TK-10 renal = system: TK-10 renal
# 786-0 renal = system: 786-0 renal
# HOP-92 NSCLC = system: HOP-92 NSCLC
# NCI-H226 lung = system: NCI-H226 lung
# OVCAR-4 ovarian = system: OVCAR-4 ovarian
# M14 melanoma = system: M14 melanoma
# T-47D breast = system: T-47D breast
# SR leukemia = system: SR leukemia
# BT-549 breast = system: BT-549 breast
# MALME-3M melanoma = system: MALME-3M melanoma
# HOP-62 NSCLC = system: HOP-62 NSCLC
# EKVX NSCLC = system: EKVX NSCLC
# UACC-62 melanoma = system: UACC-62 melanoma
# HT29 colon = system: HT29 colon
# SN12C renal = system: SN12C renal
# SK-MEL-5 melanoma = system: SK-MEL-5 melanoma
# CCRF-CEM leukemia = system: CCRF-CEM leukemia
# CAKI-1 renal = system: CAKI-1 renal
# SF-539 CNS = system: SF-539 CNS
# U251 CNS = system: U251 CNS
# NCI-H460 lung = system: NCI-H460 lung
# SNB-75 CNS = system: SNB-75 CNS
# MDA-MB-435 = system: MDA-MB-435
# UACC-257 melanoma = system: UACC-257 melanoma
# ACHN renal = system: ACHN renal
# MCF7 breast = system: MCF7 breast
# SK-MEL-28 melanoma = system: SK-MEL-28 melanoma
# KM12 colon = system: KM12 colon
# MDA-MB-231 breast = system: MDA-MB-231 breast
# UO-31 renal = system: UO-31 renal
# SW-620 colon = system: SW-620 colon
# OVCAR-3 ovarian = system: OVCAR-3 ovarian
# HS 578T breast = system: HS 578T breast
# OVCAR-8 ovarian = system: OVCAR-8 ovarian
# A549 NSCLC = system: A549 NSCLC
# DU-145 prostate = system: DU-145 prostate
# PC-3 prostate = system: PC-3 prostate
# LOX IMVI melanoma = system: LOX IMVI melanoma
# A498 renal = system: A498 renal
# RPMI-8226 leukemia = system: RPMI-8226 leukemia
# COLO 205 colon = system: COLO 205 colon
# SNB-19 CNS = system: SNB-19 CNS
# HCT-116 colon = system: HCT-116 colon
# K-562 leukemia = system: K-562 leukemia
# NCI-H522 lung = system: NCI-H522 lung
# OVCAR-5 ovarian = system: OVCAR-5 ovarian
# SF-295 CNS = system: SF-295 CNS
# SK-OV-3 ovarian = system: SK-OV-3 ovarian
# MOLT-4 leukemia = system: MOLT-4 leukemia
structure (smiles),measurement,setting,value
O=C1Nc2ccccc2/C1=C\c1c(Cl)nc2sccn12,GI50,HCT-15 colon,1.18 µM
same,TGI,HCT-15 colon,8.46 µM
same,GI50,IGROV1 ovarian,5.05 µM
same,TGI,IGROV1 ovarian,> 54.6 µM
same,GI50,SF-268 CNS,5.41 µM
same,TGI,SF-268 CNS,29.5 µM
same,GI50,NCI/ADR-RES ovarian,1.26 µM
same,TGI,NCI/ADR-RES ovarian,7.64 µM
same,GI50,RXF 393 renal,3.2 µM
same,TGI,RXF 393 renal,19 µM
same,GI50,SK-MEL-2 melanoma,4.16 µM
same,TGI,SK-MEL-2 melanoma,> 41.2 µM
same,GI50,NCI-H23 lung,4.7 µM
same,TGI,NCI-H23 lung,17.1 µM
same,GI50,TK-10 renal,3.24 µM
same,TGI,TK-10 renal,8.21 µM
same,GI50,786-0 renal,1.32 µM
same,TGI,786-0 renal,4.94 µM
same,GI50,HOP-92 NSCLC,4.31 µM
same,TGI,HOP-92 NSCLC,11.1 µM
same,GI50,NCI-H226 lung,6.11 µM
same,TGI,NCI-H226 lung,16 µM
same,GI50,OVCAR-4 ovarian,13.9 µM
same,TGI,OVCAR-4 ovarian,> 61.4 µM
same,GI50,M14 melanoma,2.02 µM
same,TGI,M14 melanoma,9.23 µM
same,GI50,T-47D breast,8.88 µM
same,TGI,T-47D breast,33.9 µM
same,GI50,SR leukemia,0.359 µM
same,TGI,SR leukemia,> 100 µM
same,GI50,BT-549 breast,1.15 µM
same,TGI,BT-549 breast,12.7 µM
same,GI50,MALME-3M melanoma,5.48 µM
same,TGI,MALME-3M melanoma,> 44.7 µM
same,GI50,HOP-62 NSCLC,1.82 µM
same,TGI,HOP-62 NSCLC,12.9 µM
same,GI50,EKVX NSCLC,1.88 µM
same,TGI,EKVX NSCLC,13.8 µM
same,GI50,UACC-62 melanoma,1.34 µM
same,TGI,UACC-62 melanoma,11.9 µM
same,GI50,HT29 colon,1.32 µM
same,TGI,HT29 colon,> 32.2 µM
same,GI50,SN12C renal,6.84 µM
same,TGI,SN12C renal,20.6 µM
same,GI50,SK-MEL-5 melanoma,1.77 µM
same,TGI,SK-MEL-5 melanoma,8.51 µM
same,GI50,CCRF-CEM leukemia,2.68 µM
same,TGI,CCRF-CEM leukemia,15.8 µM
same,GI50,CAKI-1 renal,1.22 µM
same,TGI,CAKI-1 renal,4.8 µM
same,GI50,SF-539 CNS,4.47 µM
same,TGI,SF-539 CNS,> 43.3 µM
same,GI50,U251 CNS,2.45 µM
same,TGI,U251 CNS,8.31 µM
same,GI50,NCI-H460 lung,2.76 µM
same,TGI,NCI-H460 lung,29.8 µM
same,GI50,SNB-75 CNS,3.23 µM
same,TGI,SNB-75 CNS,8.34 µM
same,GI50,MDA-MB-435,0.441 µM
same,TGI,MDA-MB-435,1.11 µM
same,GI50,UACC-257 melanoma,8.03 µM
same,TGI,UACC-257 melanoma,> 70.8 µM
same,GI50,ACHN renal,3.12 µM
same,TGI,ACHN renal,18.2 µM
same,GI50,MCF7 breast,0.66 µM
same,TGI,MCF7 breast,17.3 µM
same,GI50,SK-MEL-28 melanoma,4.91 µM
same,TGI,SK-MEL-28 melanoma,26.8 µM
same,GI50,KM12 colon,0.67 µM
same,TGI,KM12 colon,19.4 µM
same,GI50,MDA-MB-231 breast,6.87 µM
same,TGI,MDA-MB-231 breast,22.8 µM
same,GI50,UO-31 renal,2.69 µM
same,TGI,UO-31 renal,16.8 µM
same,GI50,SW-620 colon,3 µM
same,TGI,SW-620 colon,> 58.9 µM
same,GI50,OVCAR-3 ovarian,1.36 µM
same,TGI,OVCAR-3 ovarian,3.73 µM
same,GI50,HS 578T breast,4.14 µM
same,TGI,HS 578T breast,35.7 µM
same,GI50,OVCAR-8 ovarian,3.85 µM
same,TGI,OVCAR-8 ovarian,35.8 µM
same,GI50,A549 NSCLC,3.51 µM
same,TGI,A549 NSCLC,> 43.1 µM
same,GI50,DU-145 prostate,5.75 µM
same,TGI,DU-145 prostate,53.4 µM
same,GI50,PC-3 prostate,2.44 µM
same,TGI,PC-3 prostate,23.9 µM
same,GI50,LOX IMVI melanoma,3.45 µM
same,TGI,LOX IMVI melanoma,17.4 µM
same,GI50,A498 renal,9.38 µM
same,TGI,A498 renal,22.4 µM
same,GI50,RPMI-8226 leukemia,1.17 µM
same,TGI,RPMI-8226 leukemia,4.48 µM
same,GI50,COLO 205 colon,1.11 µM
same,TGI,COLO 205 colon,5.97 µM
same,GI50,SNB-19 CNS,6.78 µM
same,TGI,SNB-19 CNS,37.7 µM
same,GI50,HCT-116 colon,1.94 µM
same,TGI,HCT-116 colon,12.8 µM
same,TGI,K-562 leukemia,> 100 µM
same,GI50,NCI-H522 lung,3.9 µM
same,TGI,NCI-H522 lung,29.8 µM
same,GI50,OVCAR-5 ovarian,3.06 µM
same,TGI,OVCAR-5 ovarian,9.39 µM
same,GI50,SF-295 CNS,1.11 µM
same,TGI,SF-295 CNS,3.24 µM
same,GI50,SK-OV-3 ovarian,4.18 µM
same,TGI,SK-OV-3 ovarian,10.8 µM
same,GI50,MOLT-4 leukemia,3.52 µM
same,TGI,MOLT-4 leukemia,> 100 µM
